Experiments:
[1] = stability study of anhydrous azithromycin, normal storage at 25±2° C. at 60±5% relative humidity; type: physicochemical
[2] = accelerated stability study of anhydrous azithromycin, storage at 40±2° C. at 75±5% relative humidity; type: physicochemical
[3] = after 12 months of storage at 25±2° C. at 60±5% relative humidity
[4] = after 3 months of storage at 40±2° C. at 75±5% relative humidity

moisture content after storage [1, 3]: ≤ 0.6%
purity by HPLC after storage [1, 3]: more than 99%
time for which the form is stable ([1]; normal stability studies): more than 18 months
change in the related substance content on storage ([1]; stored at 25±2° C. at 60±5% relative humidity): no change
time for which the form is stable ([2]; accelerated stability studies): more than 3 months
moisture content after storage [2, 4]: ≤ 0.6%
purity by HPLC after storage [2, 4]: more than 98%
change in the related substance content on storage ([2]; stored at 40±2° C. at 75±5% relative humidity): no change
SMILES: CCC1OC(=O)C(C)C(O[C@H]2C[C@@](C)(OC)[C@@H](O)C(C)O2)C(C)[C@@H](OC2OC(C)CC(N(C)C)[C@H]2O)[C@@](C)(O)C[C@@H](C)CN(C)[C@H](C)[C@@H](O)[C@]1(C)O (stereo partly drawn) [anhydrous azithromycin, (2R,3S,4R,5R,5R,10R,11R,12S,13S,14R)-13-[(2,6-dideoxy-3-C-methyl-3-O-methyl-a-L-ribo-hexopyranosyl)oxy]-2-ethyl-3,4,10-trihydroxy-3,5,6,8,10,12,14-heptamethyl-11-[[3,4,6-trideoxy-3-(dimethylamino)-b-D-xylo-hexopyranosyl]oxy]-1-oxa-6-azacyclopentadecan-15-one]
